Measurements: patent US20240101562A1, “NOVEL COMPOUND, AND PHARMACEUTICAL COMPOSITION FOR PREVENTING OR TREATING RESISTANT CANCER, COMPRISING SAME” (HOLOSMEDIC, priority 2020, published 2024)

Columns and labels:
Format in all cases: cell-based
[1] = system: SKOV3 cell line (epithelial ovarian cancer); assay: WST-1 assay, co-treatment with docetaxel, SKOV3; conditions: docetaxel alone, 0.75 nM, SKOV3, three days
Protocol: (§1) According to the results of WST-1 assays, which measure cell proliferation or survival, a reduction in metabolism in SKOV3 and SKOV3-TR was induced by docetaxel treatment.
(§2) After SKOV3 and SKOV3-TR were co-treated with 79 types of compounds and docetaxel, the WST-1 assays were performed.
(§3) Specifically, the two cancer cell lines grown in 96-well plates were treated with the 79 types of compounds at a low concentration (0.5 μM) or a high concentration (2 μM) and docetaxel, and the docetaxel concentration used herein were 1 μM for the SKOV3-TR cell line and 0.75 nM for the SKOV3 cell line. For cytotoxicity analysis, three days after the co-treatment of DMSO (docetaxel, compound solvent), docetaxel and the 79 types of compounds, the WST-1 assays were performed.

[2] = system: SKOV3-TR cell line (paclitaxel-resistant, derived from SKOV3); assay: WST-1 assay, co-treatment with docetaxel, SKOV3-TR; conditions: docetaxel alone, 1 μM, three days
Protocol: as §1, §2, §3

[3] = system: SKOV3 cell line (epithelial ovarian cancer); assay: WST-1 assay, co-treatment with paclitaxel, SKOV3; conditions: paclitaxel alone, 2 nM or 0.05 μM, SKOV3, three days
Protocol: (§4) According to the results of WST-1 assays, which measure cell proliferation or survival, a reduction in metabolism in SKOV3 and SKOV3-TR was induced by paclitaxel treatment. The WST-1 assays were performed after SKOV3 and SKOV3-TR were co-treated with 79 types of compounds and paclitaxel.
(§5) Specifically, the two cancer cell lines grown in 96-well plates were treated with the 79 types of compounds at a low concentration (0.5 μM) or a high concentration (2 μM) and paclitaxel, and the paclitaxel concentration used herein was 3 μM or 4 μM for the SKOV3-TR cell line, and 2 nM or 0.05 μM for the SKOV3 cell line. For cytotoxicity analysis, three days after co-treatment of DMSO (paclitaxel, compound solvent), paclitaxel and the 79 types of compounds, the WST-1 assays were performed.

[4] = system: SKOV3-TR cell line (paclitaxel-resistant, derived from SKOV3); assay: WST-1 assay, co-treatment with paclitaxel, SKOV3-TR; conditions: paclitaxel alone, 3 μM or 4 μM, three days
Protocol: as §4, §5

Compound	absorbance at 450 nm compared to the DMSO-treated group [1]	absorbance at 450 nm compared to the DMSO-treated group [2]	absorbance at 450 nm compared to the DMSO-treated group [3]	absorbance at 450 nm compared to the DMSO-treated group [4]
CC(=O)O[C@@]12CO[C@@H]1C[C@H](O)[C@@]1(C)C(=O)[C@H](O)C3=C(C)[C@@H](OC(=O)[C@H](O)[C@@H](NC(=O)OC(C)(C)C)c4ccccc4)C[C@@](O)([C@@H](OC(=O)c4ccccc4)[C@H]21)C3(C)C [docetaxel]	reduced	reduced	–	–
CC(=O)O[C@H]1C(=O)[C@@]2(C)[C@H]([C@H](OC(=O)c3ccccc3)[C@]3(O)C[C@H](OC(=O)[C@H](O)[C@@H](NC(=O)c4ccccc4)c4ccccc4)C(C)=C1C3(C)C)[C@]1(OC(C)=O)CO[C@@H]1C[C@@H]2O [paclitaxel]	–	–	reduced	reduced
